The values below come from US20260209211A1, “CYCLIN K DEGRADER AND USE THEREOF” (ADLAI NORTYE BIOPHARMA CO., LTD., priority 2022, published 2026).

By pIC50 is commonly meant the IC50 on a negative log10 scale, so that one unit is a factor of ten.

What all share (assay type): cell-based
Assay [1] has as its system HGC27 (Human Gastric Cancer Cell). Briefly: Bioactivity assay for HGC27 cell growth inhibition (CellTiter-Glo). The note with it: read-out: HGC27 CTG IC50. On the procedure:
This detection method is used to evaluate the biological activity of the compounds of the present disclosure at the cellular level.
(§1) HGC27 cells (purchased from the Chinese Academy of Sciences) were harvested, resuspended in complete medium and adjusted to a cell density of 0.2×10^6 cells per ml. The cell suspension was added to a 96-well plate at a volume of 100 μL per well and cultured overnight in a 37° C., 5% CO2 incubator. Prepare the test compound and add it to the cell plate so that the highest concentration of the compound is 10 μM. Set 8 concentration points according to 3-fold dilution. At the same time, 100% inhibition control wells were set, that is, wells with no cells but only an equal volume of complete culture medium; and 0% inhibition control wells, that is, wells with cells added with 0.1% DMSO. The cell plate was cultured at 37° C. and 5% CO2 for 24 hours. Remove the cell culture plate and add 25 μl CellTiter-Glo® Luminescent Cell Viability Reagent (promega cat #G7573) to each well. Incubate in the dark for 10 minutes and then transfer 100 μL to a white plate and use Molecular Devices SpectraMax i3 to detect chemiluminescence. The inhibition rate was calculated using the following formula for data processing: compound inhibition rate=(0% inhibition control well signal−compound treatment well signal)/(0% inhibition control well signal−100% inhibition control well signal)*100%. The calculated data were fitted with four parameters using GraphPad Prism software and the corresponding IC50 was calculated.

Assay [2] concerns NCI-N87 (Human Gastric Cancer Cell). The experiment in a line: Bioactivity detection of NCI-N87 cell growth inhibition (CellTiter-Glo). The following applies: NCI-N87 cells, 72 hours, highest concentration 10 μM, read-out: N87 CTG IC50. On the procedure:
This detection method is used to evaluate the biological activity of the compounds described in this disclosure at the cellular level.
as §1, with “NCI-N87” for “HGC27”, “0.1×10^6” for “0.2×10^6”, “72” for “24”, “CellTiter-Glo” for “CellTiter-Glo®”, “signal)[…].” for “signal)*100%.”

The target in the next assay is T1, Cyclin K (CCNK) (Homo sapiens, UniProt O75909+Q9NYV4).
T1 construct: host or cells: HEK293
Briefly: Western blot analysis of Cyclin K (CCNK) degradation in HEK293 cells. The following applies: 6 h, different concentrations, compared with the control (FIG. 1). The procedure:
HEK293 cells (ATCC, cat #CRL-1573) were harvested and the cell density was adjusted to 1×10^6 cells per ml. 1 ml of cell suspension was plated into each well of a 6-well plate and cultured overnight. The compound stock solution was taken and diluted with DMSO to the appropriate concentration. The diluted compounds were added to the cell wells at a ratio of 1:1000 using culture medium to ensure that the DMSO concentration in each well was 0.1%. Negative control wells were also set up, which contained complete medium containing 0.1% DMSO. After treatment with the compounds at the concentrations indicated in the figures and at different times, total cell protein was extracted using RIPA cell lysis buffer (Beyotime, cat #P0013B) containing PMSF. After protein quantification using the BCA protein quantification kit (Thermo Fisher, cat #A53225), each sample was loaded with 40 μg for subsequent SDS-PAGE and western blot experiments. The specific conditions are as follows: after running the gel at a constant voltage of 120 V for 90 minutes, transfer the membrane at a constant current of 320 mA for 60 minutes. Incubate the antibodies according to the recommended dilution ratio and incubation time. The antibody information used in the experiment is as follows: Anti-GAPDH antibody (abcam, cat #ab9485), Anti-Cyclin K antibody (abcam, cat #ab85854), Goat anti-Rabbit IgG (H+L) Cross-Adsorbed Secondary Antibody, HRP (invitrogen, cat #G-21234). ECL luminescent solution (Thermo Fisher, cat #32209) was used for color development. The final results were analyzed using a gel imaging system.
According to the above detection method, some compounds described in the present disclosure were evaluated.
A general note: Immunoblotting shows a protein as a band on a membrane.

Setting [3] is: HGC-27, HGC27 cells, 24 hours, CellTiter-Glo, highest concentration 10 μM.

Each structure is given as a SMILES string. pIC50: −log10 of the molar value. Read-outs that look alike come from different tables or passages of the source.

T1 sequence (O75909 whole entry): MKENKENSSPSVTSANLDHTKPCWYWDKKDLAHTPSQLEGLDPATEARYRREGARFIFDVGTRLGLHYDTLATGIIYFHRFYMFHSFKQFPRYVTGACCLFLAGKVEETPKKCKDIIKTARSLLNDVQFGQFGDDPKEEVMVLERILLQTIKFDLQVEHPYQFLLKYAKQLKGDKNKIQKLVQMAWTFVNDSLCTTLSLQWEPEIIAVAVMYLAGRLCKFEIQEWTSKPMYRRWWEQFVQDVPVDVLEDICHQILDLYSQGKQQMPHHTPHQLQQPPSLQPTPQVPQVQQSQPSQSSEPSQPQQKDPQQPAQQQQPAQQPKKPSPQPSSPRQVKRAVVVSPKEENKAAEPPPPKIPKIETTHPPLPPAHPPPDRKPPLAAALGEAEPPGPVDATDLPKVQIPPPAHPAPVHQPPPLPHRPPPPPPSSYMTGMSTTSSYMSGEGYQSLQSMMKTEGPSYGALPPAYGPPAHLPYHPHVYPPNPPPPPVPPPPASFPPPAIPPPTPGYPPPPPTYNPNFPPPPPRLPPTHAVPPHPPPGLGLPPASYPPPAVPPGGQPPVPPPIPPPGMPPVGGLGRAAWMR
T1 sequence (Q9NYV4 whole entry): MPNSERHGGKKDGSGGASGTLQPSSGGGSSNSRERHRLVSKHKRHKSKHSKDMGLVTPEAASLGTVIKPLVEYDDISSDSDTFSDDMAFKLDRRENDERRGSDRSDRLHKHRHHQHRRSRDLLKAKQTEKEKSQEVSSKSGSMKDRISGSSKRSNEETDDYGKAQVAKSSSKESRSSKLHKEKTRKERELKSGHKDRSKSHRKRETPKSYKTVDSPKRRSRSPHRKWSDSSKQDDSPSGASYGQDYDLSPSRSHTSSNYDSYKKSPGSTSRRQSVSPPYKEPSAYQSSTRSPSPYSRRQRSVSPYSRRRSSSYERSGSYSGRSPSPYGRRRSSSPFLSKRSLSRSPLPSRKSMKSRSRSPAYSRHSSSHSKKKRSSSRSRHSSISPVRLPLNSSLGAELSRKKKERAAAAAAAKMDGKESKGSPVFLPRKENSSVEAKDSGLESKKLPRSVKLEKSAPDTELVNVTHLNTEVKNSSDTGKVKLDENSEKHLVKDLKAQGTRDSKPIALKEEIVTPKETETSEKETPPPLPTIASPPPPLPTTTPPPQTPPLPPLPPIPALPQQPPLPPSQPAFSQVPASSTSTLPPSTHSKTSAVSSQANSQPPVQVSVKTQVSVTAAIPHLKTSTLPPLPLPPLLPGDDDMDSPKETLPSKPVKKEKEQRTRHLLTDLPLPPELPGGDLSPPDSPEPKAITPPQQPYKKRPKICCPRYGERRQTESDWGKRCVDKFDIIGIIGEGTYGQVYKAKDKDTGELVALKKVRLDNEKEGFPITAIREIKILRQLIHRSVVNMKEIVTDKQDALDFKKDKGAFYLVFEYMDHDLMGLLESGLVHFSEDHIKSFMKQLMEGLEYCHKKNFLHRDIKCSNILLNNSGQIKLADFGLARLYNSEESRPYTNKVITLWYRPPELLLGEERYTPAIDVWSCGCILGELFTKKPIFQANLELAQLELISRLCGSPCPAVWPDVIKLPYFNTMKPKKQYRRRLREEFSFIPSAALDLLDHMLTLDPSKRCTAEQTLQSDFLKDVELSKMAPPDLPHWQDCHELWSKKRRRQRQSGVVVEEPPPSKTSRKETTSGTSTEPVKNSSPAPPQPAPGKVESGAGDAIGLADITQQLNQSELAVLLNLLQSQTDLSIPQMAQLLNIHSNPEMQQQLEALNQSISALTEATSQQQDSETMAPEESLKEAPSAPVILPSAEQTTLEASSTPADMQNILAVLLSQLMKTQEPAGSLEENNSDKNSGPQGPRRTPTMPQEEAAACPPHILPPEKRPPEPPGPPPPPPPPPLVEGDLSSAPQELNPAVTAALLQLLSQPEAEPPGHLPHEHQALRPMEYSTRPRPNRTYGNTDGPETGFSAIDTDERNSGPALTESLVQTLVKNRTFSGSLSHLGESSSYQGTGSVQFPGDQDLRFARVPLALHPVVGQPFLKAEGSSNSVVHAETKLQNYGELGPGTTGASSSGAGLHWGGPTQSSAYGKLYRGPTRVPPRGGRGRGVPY

Turning to `C[C@@H](O)[C@@H](C)Oc1nc(NCc2ccc3c(c2)[nH]c2c(CO)ccnc23)ncc1C(F)(F)F` [Compound 12], the pIC50 in assay [1] (setting [3]) is 7.60; in assay [2], 8.12. Also, the “degradation of Cyclin K (western blot)” value on Cyclin K (CCNK) is recorded as “significantly induce the degradation of Cyclin K”.
On the same counts, the results for `CC[C@@H](Nc1nc(NCc2ccc3c(c2)[nH]c2c(CO)ccnc23)ncc1C(F)(F)F)C(N)=O` [Compound 17] are 7.17, 8.51 and “significantly induce the degradation of Cyclin K”.
`CC(C)(O)[C@@H](Nc1nc(NCc2ccc3c(c2)[nH]c2c(CN)ccnc23)ncc1C(F)(F)F)C(N)=O` [Compound 58]: the pIC50 in assay [1] (setting [3]) was 6.94; in assay [2], 7.24.
On the same counts, the results for `C[C@@H](O)[C@@H](C)Nc1nc(NCc2ccc3c(c2)nn2c(CO)ccnc32)ncc1C(F)(F)F` [Compound 60] are 7.89 and 8.74.
The like results for `CC[C@@H](Nc1nc(NCc2ccc3c(c2)nn2c(CN)ccnc32)ncc1C(F)(F)F)C(N)=O` [Compound 62] were, in that order, 7.15 and 7.32.
On the same counts, the results for `C[C@@H](O)[C@@H](C)Nc1nc(NCc2ccc3c(c2)nn2c(CN)ccnc32)ncc1C(F)(F)F` [Compound 63] are 7.70 and 7.82.
Take `CO[C@@H](C)[C@@H](Nc1nc(NCc2ccc3c(c2)[nH]c2c(C#N)ccnc23)ncc1C(F)(F)F)C(N)=O` [Compound 67]: the pIC50 was 7.85 in assay [1] (setting [3]) and 8.60 in assay [2].
On the same counts, the results for `Cc1ccnc2c1[nH]c1cc(CNc3ncc(C(F)(F)F)c(N[C@H](C)[C@@H](C)O)n3)ccc12` [Compound 68] are 7.44 and 9.00.
On the same counts, the results for `CC[C@@H](Nc1nc(NCc2ccc3c(c2)[nH]c2c(C)ccnc23)ncc1C(F)(F)F)C(N)=O` [Compound 70] are 6.95 and 7.89.
With `CO[C@@H](C)[C@H](C#N)Nc1nc(NCc2ccc3c(c2)[nH]c2c(CO)ccnc23)ncc1C(F)(F)F` [Compound 71], the negative-log IC50 (pIC50) in assay [1] (setting [3]) is 7.17; in assay [2], 8.07.
On the same counts, the results for `C[C@@H](O)[C@@H](CO)Nc1nc(NCc2ccc3c(c2)[nH]c2c(C#N)ccnc23)ncc1C(F)(F)F` [Compound 73] are 8.22 and 8.52.
The like results for `CO[C@@H](C)[C@@H](Nc1nc(NCc2ccc3c(c2)[nH]c2c(CO)ccnc23)ncc1C#N)C(N)=O` [Compound 74] were, in that order, 6.89 and 7.12.
On the same counts, the results for `OCc1ccnc2c1[nH]c1cc(CNc3ncc(C(F)(F)F)c(N[C@@H]4CNCC[C@@H]4O)n3)ccc12` [Compound 75] are 7.42 and 7.66.
In the case of `OCc1ccnc2c1[nH]c1cc(CNc3ncc(C(F)(F)F)c(N[C@@H]4CCNC[C@@H]4O)n3)ccc12` [Compound 77], the pIC50 in assay [1] (setting [3]) is 6.82; in assay [2], 7.21.
With `OCc1ccnc2c1[nH]c1cc(CNc3ncc(C(F)(F)F)c(N[C@@H]4CNC[C@@H]4O)n3)ccc12` [Compound 78], the results for the negative logarithm of the IC50 (pIC50) in assay [1] (setting [3]) and in assay [2] were 6.61 and 6.92, respectively.
On the same counts, the results for `CO[C@@H](C)[C@@H](Nc1nc(NCc2ccc3c(c2)nn2c(CO)ccnc32)ncc1C(F)(F)F)C(N)=O` [Compound 79] are 7.42 and 8.05.
On the same counts, the results for `OCc1ccnc2c3ccc(CNc4ncc(C(F)(F)F)c(N[C@@H]5CNCC[C@@H]5O)n4)cc3nn12` [Compound 80] are 7.39 and 8.27.
In the case of `N#Cc1ccnc2c1[nH]c1cc(CNc3ncc(C(F)(F)F)c(N[C@@H]4CNCC[C@@H]4O)n3)ccc12` [Compound 81], the negative-log IC50 (pIC50) in assay [1] (HGC-27, 24 h) is 8.70; in assay [2], 9.10.
`CO[C@@H](C)[C@@H](Nc1nc(NCc2ccc3c(c2)[nH]c2c(CO)ccnc23)ncc1C(F)(F)F)C(N)=O` [Compound 82]: the pIC50 is 7.55 in assay [1] (setting [3]) and 8.22 in assay [2].
In the case of `Cc1ccnc2c1[nH]c1cc(CNc3ncc(C(F)(F)F)c(N[C@@H]4CNCC[C@@H]4O)n3)ccc12` [Compound 83], the pIC50 in assay [1] (setting [3]) and in assay [2] was 8.10 in each case.
With `CC[C@@H](Oc1nc(NCc2ccc3c(c2)[nH]c2c(CN)ccnc23)ncc1C(F)(F)F)C(N)=O` [Compound 84], the negative-log IC50 (pIC50) in assay [1] (setting [3]) is 6.39; in assay [2] it was 7.07.
Turning to `N#Cc1ccnc2c1[nH]c1cc(CNc3ncc(C(F)(F)F)c(N[C@@H]4CNCC[C@H]4O)n3)ccc12` [Compound 85], the negative-log IC50 (pIC50) is 7.77 in assay [1] (HGC-27, 24 h) and 8.07 in assay [2].
As to `N#Cc1ccnc2c1[nH]c1cc(CNc3ncc(C(F)(F)F)c(N[C@@H]4CNC[C@@H]4O)n3)ccc12` [Compound 86], the pIC50 was 8.22 in assay [1] (setting [3]) and 8.40 in assay [2].
The like results for `N#Cc1ccnc2c1[nH]c1cc(CNc3ncc(C(F)(F)F)c(N[C@@H]4CN(C(=O)CN)CC[C@@H]4O)n3)ccc12` [Compound 87] were, in that order, 7.92 and 7.92.
In the case of `CN1CC[C@H](O)[C@H](Nc2nc(NCc3ccc4c(c3)[nH]c3c(C#N)ccnc34)ncc2C(F)(F)F)C1` [Compound 88], the negative-log IC50 (pIC50) in assay [1] (setting [3]) and in assay [2] was 8.70 each time.
Take `N#Cc1ccnc2c1[nH]c1cc(CNc3ncc(C(F)(F)F)c(N[C@@H]4CCNC[C@@H]4O)n3)ccc12` [Compound 89]: the pIC50 in assay [1] (setting [3]) is 8.70; in assay [2], 8.54.
On the same counts, the results for `C[C@@H](N)[C@@H](C)Oc1nc(NCc2ccc3c(c2)[nH]c2c(CO)ccnc23)ncc1C(F)(F)F` [Compound 90] are 8.31 and 8.22.
The like results for `N#Cc1ccnc2c1[nH]c1cc(CNc3ncc(C(F)(F)F)c(O[C@@H]4CNC[C@@H]4O)n3)ccc12` [Compound 91] were, in that order, 7.85 and 8.28.
On the same counts, the results for `Cn1c2cc(CNc3ncc(C(F)(F)F)c(N[C@@H]4CNCC[C@@H]4O)n3)ccc2c2nccc(C#N)c21` [Compound 93] are 7.77 and 8.39.
As for `N#Cc1ccnc2c1[nH]c1cc(CNc3ncc(C(F)(F)F)c(N[C@@H]4CN(CCO)CC[C@@H]4O)n3)ccc12` [Compound 94], the pIC50 was 8.05 in assay [1] (setting [3]) and 8.43 in assay [2].
For `C[C@@H](O)[C@H](Nc1nc(NCc2ccc3c(c2)[nH]c2c(C#N)ccnc23)ncc1C(F)(F)F)C(N)=O` [Compound 95], the negative-log IC50 (pIC50) in assay [1] (HGC-27, 24 h) was 8.52; in assay [2], 8.10.
Turning to `COc1ccnc2c1[nH]c1cc(CNc3ncc(C(F)(F)F)c(N[C@@H](C(N)=O)[C@H](C)OC)n3)ccc12` [Compound 97], the values for the pIC50 in assay [1] (setting [3]) and in assay [2] were 7.37 and 8.18, respectively.
Take `C[C@@H](O)[C@@H](C)Nc1nc(NCc2ccc3c(c2)[nH]c2c(C#N)ccnc23)ncc1C(F)(F)F` [Compound 98]: the pIC50 in assay [1] (setting [3]) was 8.15; in assay [2], 8.70.
